Data: patent US20240090503A1, “FUNGICIDAL OXADIAZOLES AND THEIR MIXTURES” (FMC CORPORATION, priority 2020, published 2024)

Assays:
Assay type in all cases: in vivo
[1] = system: Puccinia recondita f. sp. tritici (the causal agent of wheat leaf rust); assay: Test C: preventive spray on wheat seedlings, wheat leaf rust, visual disease rating; settings: wheat seedlings
Summary of the method: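 Wheat seedlings sprayed to run-off with compound in acetone/water (50/50) with 250 ppm PEG400, then inoculated with spores the following day. After 24 h saturated humidity at 20° C. and 6 days in growth chamber at 20° C., disease rated visually as % control relative to untreated controls.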

[2] = system: Phakopsora pachyrhizi (the causal agent of Asian soybean rust); assay: Test A: preventive spray on soybean seedlings, Asian soybean rust, visual disease rating; settings: soybean seedlings
Summary of the method: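 Compound in acetone/water (50/50) with 250 ppm PEG400 sprayed to run-off on soybean seedlings; inoculated next day with Phakopsora pachyrhizi spores. Held 24 h at 22° C in saturated atmosphere, then 8 days in a 22° C growth chamber before visual rating as % disease control relative to controls.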

[3] = system: Zymoseptoria tritici (the causal agent of wheat leaf blotch); assay: Test B: preventive spray on wheat seedlings, wheat leaf blotch, visual disease rating; settings: wheat seedlings
From the text: General protocol for preparing test suspensions for Tests A-D: the test compounds were first dissolved in acetone in an amount equal to 3% of the final volume and then suspended at the desired concentration (in ppm) in acetone and purified water (50/50 mix by volume) containing 250 ppm of the surfactant PEG400 (polyhydric alcohol esters). The resulting test suspensions were then used in Tests A-D.
The test suspension was sprayed to the point of run-off on wheat seedlings. The following day the seedlings were inoculated with a spore suspension of Zymoseptoria tritici (the causal agent of wheat leaf blotch) and incubated in a saturated atmosphere at 24° C. for 48 h, and then moved to a growth chamber at 20° C. for 17 days, after which time visual disease ratings were made.
The test results for Tests A-C presented in Table A below for compounds of Formula 1 illustrate the fungicidal activity of component (a) contributing to the plant disease control utility of compositions comprising component (a) in combination with component (b) according to the present invention. In the Table, a rating of 100 indicates 100% disease control and a rating of 0 indicates no disease control (relative to the controls). A dash (-) indicates the compound was not tested. The test suspensions were sprayed at the concentration listed in the column “Rate in ppm”, unless otherwise indicated. An asterisk “*” next to the rating indicates a 250 ppm test suspension was used, a double asterisk “**” next to the rating indicates a 100 ppm test suspension was used, and a triple asterisk “***” next to the rating indicates a 50 ppm test suspension was used.

Row | Compound | Test C disease control rating ([1]; test suspension 250 ppm) | Test A disease control rating ([2]; test suspension 250 ppm) | Test B disease control rating ([3]; test suspension 250 ppm) | also measured
1 | N#Cc1nn(Cc2ccc(-c3noc(C(F)(F)F)n3)s2)cc1Br [compound 76] | – | – | – | Test C disease control rating ([1]; test suspension 270 ppm): 99%; Test A disease control rating ([2]; test suspension 270 ppm): 100%; Test B disease control rating ([3]; test suspension 270 ppm): 41%
2 | CCOC(=O)c1nn(Cc2ccc(-c3noc(C(F)(F)F)n3)cc2)nc1Br [compound 84] | 100% | 100% | 66% | –
3 | FC(F)(F)c1nc(-c2ccc(Cn3ccc4cccnc43)cc2)no1 [compound 86] | 100% | 100% | 89% | –
4 | O=C1C(=O)N(Cc2ccc(-c3noc(C(F)(F)F)n3)cc2)c2ccccc21 [compound 87] | 100% | 100% | 82% | –
5 | N#Cc1ccc2ccn(Cc3ccc(-c4noc(C(F)(F)F)n4)cc3)c2c1 [compound 88] | 100% | 100% | 93% | –
6 | N#Cc1ccn(Cc2ccc(-c3noc(C(F)(F)F)n3)cc2)c(=O)c1 [compound 89] | 100% | 100% | 83% | –
7 | FC(F)(F)c1nc(-c2ccc(Cn3cnc4ccccc43)cc2)no1 [compound 91] | 100% | 100% | 96% | –
8 | FC(F)(F)c1nc(-c2ccc(Cn3nnc4ccccc43)cc2)no1 [compound 92] | 100% | 0% | 96% | –
9 | FC(F)(F)c1nc(-c2ccc(Cn3nc4ccccc4n3)cc2)no1 [compound 93] | 99% | 100% | 39% | –
10 | O=[N+]([O-])c1ccc2c(cnn2Cc2ccc(-c3noc(C(F)(F)F)n3)cc2)c1 [compound 94] | 78% | 100% | 35% | –
11 | FC(F)(F)c1nc(-c2ccc(CN3CCOCC3)cc2)no1 [compound 96] | 99% | 100% | 0% | –
12 | CCOC(=O)c1cn(Cc2ccc(-c3noc(C(F)(F)F)n3)cc2)nc1C(F)(F)F [compound 111] | – | – | – | Test C disease control rating ([1]; test suspension 255 ppm): 86%; Test A disease control rating ([2]; test suspension 255 ppm): 100%; Test B disease control rating ([3]; test suspension 255 ppm): 0%
13 | CCOC(=O)c1ccn(Cc2ccc(-c3noc(C(F)(F)F)n3)cc2)n1 [compound 114] | 100% | 100% | 0% | –
14 | FC(F)(F)c1nc(-c2ccc(Cn3nc(Cl)c4ccccc43)cc2)no1 [compound 116] | – | – | – | Test C disease control rating ([1]; test suspension 265 ppm): 99%; Test A disease control rating ([2]; test suspension 265 ppm): 100%; Test B disease control rating ([3]; test suspension 265 ppm): 25%
15 | CCOC(=O)c1nn(Cc2ccc(-c3noc(C(F)(F)F)n3)cc2)c2ccccc12 [compound 117] | – | – | – | Test C disease control rating ([1]; test suspension 255 ppm): 41%; Test A disease control rating ([2]; test suspension 255 ppm): 88%; Test B disease control rating ([3]; test suspension 255 ppm): 0%
16 | O=c1oc2ccccc2n1Cc1ccc(-c2noc(C(F)(F)F)n2)cc1 [compound 118] | 98% | 100% | 0% | –
17 | FC(F)(F)c1nc(-c2ccc(Cn3ncc4cc(Cl)ccc43)cc2)no1 [compound 119] | – | – | – | Test C disease control rating ([1]; test suspension 265 ppm): 100%; Test A disease control rating ([2]; test suspension 265 ppm): 100%; Test B disease control rating ([3]; test suspension 265 ppm): 54%

Row | Compound | Test C disease control rating ([1]; test suspension 250 ppm) | Test A disease control rating ([2]; test suspension 250 ppm) | Test B disease control rating ([3]; test suspension 250 ppm) | also measured
18 | COc1ccc2c(C#N)nn(Cc3ccc(-c4noc(C(F)(F)F)n4)cc3)c2c1 [compound 120] | – | – | – | Test C disease control rating ([1]; test suspension 260 ppm): 68%; Test A disease control rating ([2]; test suspension 260 ppm): 99%; Test B disease control rating ([3]; test suspension 260 ppm): 0%
19 | FC(F)(F)c1nc(-c2ccc(Cn3ccc(-c4ccc(Cl)cc4)n3)cc2)no1 [compound 122] | 68% | 100% | 0% | –
20 | CCOC(=O)c1c2ccccc2nn1Cc1ccc(-c2noc(C(F)(F)F)n2)cc1 [compound 123] | – | – | – | Test C disease control rating ([1]; test suspension 255 ppm): 99%; Test A disease control rating ([2]; test suspension 255 ppm): 100%; Test B disease control rating ([3]; test suspension 255 ppm): 21%
21 | CCOC(=O)C1CCN(Cc2ccc(-c3noc(C(F)(F)F)n3)cc2)C1 (stereo not drawn) [compound 124] | – | – | – | Test C disease control rating ([1]; test suspension 260 ppm): 100%; Test A disease control rating ([2]; test suspension 260 ppm): 100%; Test B disease control rating ([3]; test suspension 260 ppm): 50%
22 | Fc1cccc2c1cnn2Cc1ccc(-c2noc(C(F)(F)F)n2)cc1 [compound 125] | – | – | – | Test C disease control rating ([1]; test suspension 260 ppm): 100%; Test A disease control rating ([2]; test suspension 260 ppm): 100%; Test B disease control rating ([3]; test suspension 260 ppm): 55%
23 | FC(F)(F)c1nc(-c2ccc(Cn3ncc4cc(Br)ccc43)cc2)no1 [compound 128] | – | – | – | Test C disease control rating ([1]; test suspension 255 ppm): 100%; Test A disease control rating ([2]; test suspension 255 ppm): 100%; Test B disease control rating ([3]; test suspension 255 ppm): 19%
24 | N#Cc1cn(Cc2ccc(-c3noc(C(F)(F)F)n3)cc2)c2ccccc12 [compound 129] | – | – | – | Test C disease control rating ([1]; test suspension 260 ppm): 89%; Test A disease control rating ([2]; test suspension 260 ppm): 100%; Test B disease control rating ([3]; test suspension 260 ppm): 0%
25 | Fc1cccc2nn(Cc3ccc(-c4noc(C(F)(F)F)n4)cc3)cc12 [compound 130] | – | – | – | Test C disease control rating ([1]; test suspension 260 ppm): 100%; Test A disease control rating ([2]; test suspension 260 ppm): 100%; Test B disease control rating ([3]; test suspension 260 ppm): 89%
26 | Cc1cc(C(F)(F)F)nn1Cc1ccc(-c2noc(C(F)(F)F)n2)cc1 [compound 132] | – | – | – | Test C disease control rating ([1]; test suspension 270 ppm): 95%; Test A disease control rating ([2]; test suspension 270 ppm): 100%; Test B disease control rating ([3]; test suspension 270 ppm): 0%
27 | FC(F)(F)c1nc(-c2ccc(Cn3cc4cc(Br)ccc4n3)cc2)no1 [compound 133] | – | – | – | Test C disease control rating ([1]; test suspension 255 ppm): 100%; Test A disease control rating ([2]; test suspension 255 ppm): 100%; Test B disease control rating ([3]; test suspension 255 ppm): 59%
28 | COC(=O)c1nn(Cc2ccc(-c3noc(C(F)(F)F)n3)cc2)c2ccccc12 [compound 134] | – | – | – | Test C disease control rating ([1]; test suspension 255 ppm): 80%; Test A disease control rating ([2]; test suspension 255 ppm): 100%; Test B disease control rating ([3]; test suspension 255 ppm): 0%
29 | COC(=O)c1nncn1Cc1ccc(-c2noc(C(F)(F)F)n2)cc1 [compound 138] | – | – | – | Test C disease control rating ([1]; test suspension 260 ppm): 100%; Test A disease control rating ([2]; test suspension 260 ppm): 100%; Test B disease control rating ([3]; test suspension 260 ppm): 96%
30 | COC(=O)c1ncn(Cc2ccc(-c3noc(C(F)(F)F)n3)cc2)n1 [compound 139] | – | – | – | Test C disease control rating ([1]; test suspension 255 ppm): 100%; Test A disease control rating ([2]; test suspension 255 ppm): 100%; Test B disease control rating ([3]; test suspension 255 ppm): 62%
31 | FC(F)(F)c1nc(-c2ccc(Cn3ccc(-c4ccccc4Cl)n3)cc2)no1 [compound 142] | 100% | 100% | 57% | –
32 | FC(F)(F)c1nc(-c2ccc(Cn3ncc4ccccc43)cc2)no1 [compound 143] | 100% | 100% | 71% | –
33 | FC(F)(F)c1cc(C(F)(F)F)n(Cc2ccc(-c3noc(C(F)(F)F)n3)cc2)n1 [compound 144] | 0% | 36% | 0% | –
34 | Cc1cc(C)n(Cc2ccc(-c3noc(C(F)(F)F)n3)cc2)n1 [compound 145] | 100% | 100% | 0% | –
